Test system: pentylenetetrazole-induced epilepsy
Assay: Pentylenetetrazole-induced epilepsy model mice
Assay type: in vivo, C57BL/6 mice
Conditions: I-BRD9 10, 15, 20 mg/kg i.p. or s.c. 1 h before 45 mg/kg pentylenetetrazole i.p., compared with epilepsy model group
From the text: In the present disclosure, the animals are all 8-week-old healthy male C57BL/6 mice, weighing 22-24 grams, all purchased from Hunan SJD laboratory animal Co. LTD., license number: SCXK (Xiang) 2016-0002. C57BL/6 mice in different groups were all feed in an artificial day and night 12-hour circular lighting environment (7:00 AM-7:00 PM). The mice in the groups and were kept in cages, 4-6 mice per cage. In the cages, the mice had free access to food and water; and the daily food and water were changed regularly
Animals in each group were administered with corresponding dosage of drugs or vehicle by intraperitoneal or subcutaneous injection. 1 h later, 45 mg/kg of pentylenetetrazole was intraperitoneally injected. The behaviors and conditions of the animals were observed. Later, changes of mice behaviors were closely observed through video monitoring system for 1 h, and seizure level was evaluated by Racine grading standard. The incubation period (started after the completion the administration of pentylenetetrazole, and ended by the first time muscle spasm occurred), seizure level (subjected to the highest level) and duration period of the seizure were recorded.
Seizure level of mice were referred to a modified Racine scale:
I stage: rhythmical mouth, ears and facial twitch and spasm;
II stage: nodding and more serious facial twitch and spasm;
III stage: clonus of forelimb occurs, without up-right;
IV stage: rearing with forelimb clonus;
V stage: stiffness clonus occurs in the whole body, and falling.

For CCn1cc(-c2cccc(C(F)(F)F)c2)c2sc(C(=N)NC3CCS(=O)(=O)CC3)cc2c1=O [I-BRD9], the “seizure level (modified Racine scale)” value (FIG. 1) was “obviously reduced seizure level”, the epilepsy susceptibility (FIG. 2) was “reduced epilepsy susceptibility” and the “incubation period (onset time of epilepsy)” value (FIG. 3) was “postpone the onset time of epilepsy”.

From US11304935B2 (UNIVERSITY OF SOUTH CHINA, priority 2018, dated 2022)
